Measured values published in patent US11464770B2, “Anticancer pharmaceutical composition” (NATIONAL CANCER CENTER, priority 2016, dated 2022).
Where two headings read alike, the source gives them in different places.

Key:
liver cancer cell lines = assay: Cell based assay, cell viability (CellTiter-Glo), liver cancer cell lines; conditions: Homo sapiens, SK-HEP1; SK-HEP-1 cell line
Protocol: (§1) Commercially available bladder cancer, prostate cancer, lung cancer, breast cancer, blood cancer, pancreatic cancer, colorectal cancer, brain cancer, neuroblastoma, melanoma, liver cancer, cervical carcinoma, ovarian cancer, renal cancer, and papilloma cell lines were each treated with trypsin-EDTA and cultured, followed by being seeded in each well of a 96 well plate. After 24 hours of treatment at constant temperature, the respective cells were treated with the candidate compound so that a final concentration became 0 to 2 μM. The treated cells were additionally cultured for 72 hours, and cell viability was measured by using an ATP detection method (CellTiter-Glo® Luminescent Cell Viability Assay, Promega).

[1] = system: bladder cancer cell lines; assay: Cell based assay, cell viability (CellTiter-Glo), bladder cancer cell lines; conditions: 72 hours treatment, 0 to 2 μM, CellTiter-Glo
Protocol: as §1

[2] = 253J cells, read-out: IC50, bladder cancer cell line 253J
[3] = 5637 cells, read-out: IC50, bladder cancer cell line 5637
[4] = Homo sapiens, T-24, T24 cells, read-out: IC50, bladder cancer cell line T24
[5] = Homo sapiens, UMUC3, UM-UC-3 cells, read-out: IC50, bladder cancer cell line UM-UC-3
[6] = Homo sapiens, J82 cells, read-out: IC50, bladder cancer cell line J82
[7] = Homo sapiens, KU-19-19 cells, read-out: IC50, bladder cancer cell line KU-19-19
[8] = MBT-2 cells, read-out: IC50, bladder cancer cell line MBT-2

Row | SMILES | IC50 (liver cancer cell lines) | IC50 [1, 2] | IC50 [1, 3] | IC50 [1, 4] | IC50 [1, 5] | IC50 [1, 6] | IC50 [1, 7] | IC50 [1, 8]
1 | CC(=O)c1c(SCc2ccc([N+](=O)[O-])cc2)[nH]c2c(Br)ccc(Cl)c2c1=O [Compound 32, 3-acetyl-8-bromo-5-chloro-2-((4-nitrobenzyl)thio)quinolin-4(1H)-one] | > 2000 nM | > 2000 nM | > 2000 nM | > 2000 nM | > 2000 nM | > 2000 nM | > 2000 nM | > 2000 nM
2 | CSc1c(C(C)=O)c(=O)c2c(Cl)ccc(Br)c2n1S(C)(=O)=O [Compound 35, 3-acetyl-8-bromo-5-chloro-1-(methylsulfonyl)-2-(methylthio)quinolin-4(1H)-one] | > 2000 nM | > 2000 nM | > 2000 nM | > 2000 nM | > 2000 nM | > 2000 nM | > 2000 nM | > 2000 nM
3 | CC(=O)c1c([S+](C)[O-])n(S(=O)(=O)C(F)(F)F)c2c(Br)ccc(Cl)c2c1=O (centres unmarked) [Compound 36, 3-acetyl-8-bromo-5-chloro-2-(methylsulfinyl)-1-((trifluoromethyl)sulfonyl)quinolin-4(1H)-one] | > 2000 nM | > 2000 nM | > 2000 nM | > 2000 nM | > 2000 nM | > 2000 nM | > 2000 nM | 1280 nM
4 | CSc1c(C(C)=O)c(=O)c2c(Cl)ccc(Br)c2n1S(=O)(=O)c1ccc(Cl)cc1 [Compound 37, 3-acetyl-8-bromo-5-chloro-1-((4-chlorophenyl)sulfonyl)-2-(methylthio)quinolin-4(1H)-one] | > 2000 nM | > 2000 nM | > 2000 nM | > 2000 nM | > 2000 nM | > 2000 nM | > 2000 nM | > 2000 nM
5 | CSc1c(C(C)=O)c(=O)c2c(Cl)ccc(Br)c2n1S(=O)(=O)c1ccc([N+](=O)[O-])cc1 [Compound 38, 3-acetyl-8-bromo-5-chloro-2-(methylthio)-1-((4-nitrophenyl)sulfonyl)quinolin-4(1H)-one] | > 2000 nM | > 2000 nM | > 2000 nM | > 2000 nM | > 2000 nM | > 2000 nM | > 2000 nM | > 2000 nM
6 | CCS(=O)(=O)n1c([S+](C)[O-])c(C(C)=O)c(=O)c2c(Cl)ccc(Br)c21 (centres unmarked) [Compound 39, 3-acetyl-8-bromo-5-chloro-1-(ethylsulfonyl)-2-(methylsulfinyl)quinolin-4(1H)-one] | > 2000 nM | > 2000 nM | > 2000 nM | > 2000 nM | > 2000 nM | > 2000 nM | > 2000 nM | > 2000 nM
7 | CSc1c(C(C)=O)c(=O)c2c(Cl)ccc(Br)c2n1S(=O)(=O)c1ccc(C(C)(C)C)cc1 [Compound 40, 3-acetyl-8-bromo-1-((4-(tert-butyl)phenyl)sulfonyl)-5-chloro-2-(methylthio)quinolin-4(1H)-one] | > 2000 nM | > 2000 nM | > 2000 nM | > 2000 nM | > 2000 nM | > 2000 nM | > 2000 nM | > 2000 nM
8 | CC(=O)c1c(S(C)(=O)=O)n(S(=O)(=O)c2ccc(C(C)(C)C)cc2)c2c(Br)ccc(Cl)c2c1=O [Compound 41, 3-acetyl-8-bromo-1-((4-(tert-butyl)phenyl)sulfonyl)-5-chloro-2-(methylsulfonyl)quinolin-4(1H)-one] | > 2000 nM | > 2000 nM | > 2000 nM | > 2000 nM | > 2000 nM | > 2000 nM | > 2000 nM | > 2000 nM
9 | CC(=O)c1c([S+](C)[O-])n(S(=O)(=O)c2ccc(C(C)(C)C)cc2)c2c(Br)ccc(Cl)c2c1=O (centres unmarked) [Compound 42, 3-acetyl-8-bromo-1-((4-(tert-butyl)phenyl)sulfonyl)-5-chloro-2-(methylsulfinyl)quinolin-4(1H)-one] | > 2000 nM | > 2000 nM | > 2000 nM | > 2000 nM | 1890 nM | > 2000 nM | > 2000 nM | > 2000 nM
10 | CC(=O)c1c(SCc2cc(Cl)ccc2Cl)[nH]c2c(Br)ccc(Cl)c2c1=O [Compound 43, 3-acetyl-8-bromo-5-chloro-2-((2,5-dichlorobenzyl)thio)quinolin-4(1H)-one] | > 2000 nM | > 2000 nM | > 2000 nM | > 2000 nM | > 2000 nM | > 2000 nM | > 2000 nM | > 2000 nM
11 | CC(=O)c1c(SCc2cc(F)cc(F)c2)[nH]c2c(Br)ccc(Cl)c2c1=O [Compound 45, 3-acetyl-8-bromo-5-chloro-2-((3,5-difluorobenzyl)thio)quinolin-4(1H)-one] | > 2000 nM | > 2000 nM | > 2000 nM | > 2000 nM | > 2000 nM | > 2000 nM | > 2000 nM | > 2000 nM
12 | CC(=O)c1c(SCc2cccc(I)c2)[nH]c2c(Br)ccc(Cl)c2c1=O [Compound 47, 3-acetyl-8-bromo-5-chloro-2-((3-iodobenzyl)thio)quinolin-4(1H)-one] | > 2000 nM | > 2000 nM | > 2000 nM | > 2000 nM | > 2000 nM | > 2000 nM | > 2000 nM | > 2000 nM
13 | CC(=O)c1c([S+]([O-])Cc2cccc(I)c2)[nH]c2c(Br)ccc(Cl)c2c1=O (centres unmarked) [Compound 48, 3-acetyl-8-bromo-5-chloro-2-((3-iodobenzyl)sulfinyl)quinolin-4(1H)-one] | > 2000 nM | > 2000 nM | > 2000 nM | > 2000 nM |  | > 2000 nM |  | 
14 | CC(=O)c1c(SCc2cccc(F)c2)[nH]c2c(Br)ccc(Cl)c2c1=O [Compound 49, 3-acetyl-8-bromo-5-chloro-2-((3-fluorobenzyl)thio)quinolin-4(1H)-one] | > 2000 nM | > 2000 nM | > 2000 nM | > 2000 nM | > 2000 nM | > 2000 nM | > 2000 nM | > 2000 nM
15 | CC(=O)c1c(SCc2ccccc2)nc2c(Br)ccc(Cl)c2c1O [Compound 52, 1-(2-(benzylthio)-8-bromo-5-chloro-4-hydroxyquinolin-3-yl)ethan-1-one] | > 2000 nM | > 2000 nM | > 2000 nM | > 2000 nM | > 2000 nM | > 2000 nM | > 2000 nM | > 2000 nM
16 | CC(=O)c1c([S+]([O-])Cc2ccccc2)nc2c(Br)ccc(Cl)c2c1O (centres unmarked) [Compound 53, 1-(2-(benzylsulfinyl)-8-bromo-5-chloro-4-hydroxyquinolin-3-yl)ethan-1-one] | > 2000 nM | > 2000 nM | > 2000 nM | > 2000 nM |  | > 2000 nM |  | 
17 | CC(=O)c1c(S(=O)(=O)Cc2ccccc2)nc2c(Br)ccc(Cl)c2c1O [Compound 54, 1-(2-(benzylsulfonyl)-8-bromo-5-chloro-4-hydroxyquinolin-3-yl)ethan-1-one] | > 2000 nM | > 2000 nM | > 2000 nM | > 2000 nM |  | > 2000 nM |  | > 2000 nM
18 | CC(=O)c1c([S+]([O-])Cc2ccccc2C#N)[nH]c2c(Br)ccc(Cl)c2c1=O (centres unmarked) [Compound 58, 2-(((3-acetyl-8-bromo-5-chloro-4-oxo-1,4-dihydroquinolin-2-yl)sulfinyl)methyl)benzonitrile] | 780 nM | 920 nM | > 2000 nM | 820 nM |  | > 2000 nM |  | 
19 | COCSc1[nH]c2c(Br)ccc(Cl)c2c(=O)c1C(C)=O [Compound 61, 3-acetyl-8-bromo-5-chloro-2-((methoxymethyl)thio)quinolin-4(1H)-one] | > 2000 nM | > 2000 nM | > 2000 nM | > 2000 nM | > 2000 nM | > 2000 nM | > 2000 nM | > 2000 nM
20 | CC(=O)c1c(S)[nH]c2c(Br)ccc(Cl)c2c1=O [Compound 62, 3-acetyl-8-bromo-5-chloro-2-mercaptoquinolin-4(1H)-one] | > 2000 nM | > 2000 nM | > 2000 nM | > 2000 nM | > 2000 nM | > 2000 nM | > 2000 nM | > 2000 nM
21 | CC(=O)c1c([S+]([O-])Cc2ccc(C(=O)c3ccccc3)cc2)[nH]c2c(Br)ccc(Cl)c2c1=O (centres unmarked) [Compound 63, 3-acetyl-2-((4-benzoylbenzyl)sulfinyl)-8-bromo-5-chloroquinolin-4(1H)-one] | > 2000 nM | > 2000 nM | > 2000 nM | > 2000 nM |  | > 2000 nM |  | 
22 | CC(=O)c1c([S+]([O-])CC#N)[nH]c2c(Br)ccc(Cl)c2c1=O (centres unmarked) [Compound 65, 2-((3-acetyl-8-bromo-5-chloro-4-oxo-1,4-dihydroquinolin-2-yl)sulfinyl)acetonitrile] | > 2000 nM | > 2000 nM | > 2000 nM | > 2000 nM | > 2000 nM | > 2000 nM | > 2000 nM | > 2000 nM
23 | CC(=O)c1c(SCC#N)[nH]c2c(Br)ccc(Cl)c2c1=O [Compound 66, 2-((3-acetyl-8-bromo-5-chloro-4-oxo-1,4-dihydroquinolin-2-yl)thio)acetonitrile] | > 2000 nM | > 2000 nM | > 2000 nM | > 2000 nM | > 2000 nM | > 2000 nM | > 2000 nM | > 2000 nM
24 | CC(=O)c1c(S/C=C\C(=O)O)[nH]c2c(Br)ccc(Cl)c2c1=O [Compound 67, (Z)-3-((3-acetyl-8-bromo-5-chloro-4-oxo-1,4-dihydroquinolin-2-yl)thio)acrylic acid] | > 2000 nM | > 2000 nM | > 2000 nM | > 2000 nM | > 2000 nM | > 2000 nM | > 2000 nM | > 2000 nM
25 | CC(=O)c1c([S+]([O-])Cc2ccc(S(F)(F)(F)(F)F)cc2)[nH]c2c(Br)ccc(Cl)c2c1=O (centres unmarked) [Compound 68, 3-acetyl-8-bromo-5-chloro-2-((4-(pentafluoro-16-sulfanyl)benzyl)sulfinyl)quinolin-4(1H)-one] | 860 nM | 970 nM | 1460 nM | 1470 nM | 1110 nM | 1490 nM | 1250 nM | 1070 nM
26 | CC(=O)c1c([S+]([O-])Cc2ccc(S(F)(F)(F)(F)F)cc2F)[nH]c2c(Br)ccc(Cl)c2c1=O (centres unmarked) [Compound 69, 3-acetyl-8-bromo-5-chloro-2-((2-fluoro-4-(pentafluoro-16-sulfanyl)benzyl)sulfinyl)quinolin-4(1H)-one] | 1040 nM | 1080 nM | 1620 nM | 1500 nM | 1200 nM | 1890 nM | 1500 nM | 1260 nM
